Patent US12209079B2 (GENERAL INCORPORATED ASSOCIATION PHARMA VALLEY PROJECT …, priority 2017, dated 2025)
Where a name gives a salt, the structure may show the parent alone.

Tests used:
[1] = target: rhIDO (recombinant human IDO) (Homo sapiens, UniProt P14902); experiment: Enzyme assay using rhIDO (rate of kynurenine production); type: biochemical; settings: 2 h; final concentration of the compound 10 μM; rate relative to reaction without compound; read-out: rhIDO-mediated kynurenine production
rhIDO (recombinant human IDO), sequence (P14902 whole entry): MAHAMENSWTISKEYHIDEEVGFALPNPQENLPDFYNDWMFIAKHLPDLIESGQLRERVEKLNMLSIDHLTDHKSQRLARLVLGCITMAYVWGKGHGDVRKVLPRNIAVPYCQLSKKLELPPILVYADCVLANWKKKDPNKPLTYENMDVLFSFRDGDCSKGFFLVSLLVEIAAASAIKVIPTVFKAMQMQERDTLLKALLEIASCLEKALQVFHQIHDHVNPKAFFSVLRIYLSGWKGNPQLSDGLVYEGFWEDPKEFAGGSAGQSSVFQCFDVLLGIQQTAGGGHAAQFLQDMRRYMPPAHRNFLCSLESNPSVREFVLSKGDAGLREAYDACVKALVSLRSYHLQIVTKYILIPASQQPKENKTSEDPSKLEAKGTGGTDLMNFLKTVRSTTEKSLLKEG
Summary of the method: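 Kynurenine formation, expressed as % of uncompounded reaction after background subtraction, was read by absorbance at 490 nm following TCA stop, 50 °C hydrolysis and Ehrlich-type p-dimethylbenzaldehyde staining. Recombinant human IDO with ascorbate/methylene blue/catalase was pre-exposed to compound 10 min, then reacted 120 min at 37 °C after adding 2 mM tryptophan stock.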

[2] = target: rhTDO (recombinant human TDO) (Homo sapiens, UniProt P48775); experiment: Enzyme assay using rhTDO (rate of kynurenine production); type: biochemical; settings: 2 h; final concentration of the compound 10 μM; rate relative to reaction without compound; read-out: rhTDO-mediated kynurenine production
rhTDO (recombinant human TDO), sequence (P48775 whole entry): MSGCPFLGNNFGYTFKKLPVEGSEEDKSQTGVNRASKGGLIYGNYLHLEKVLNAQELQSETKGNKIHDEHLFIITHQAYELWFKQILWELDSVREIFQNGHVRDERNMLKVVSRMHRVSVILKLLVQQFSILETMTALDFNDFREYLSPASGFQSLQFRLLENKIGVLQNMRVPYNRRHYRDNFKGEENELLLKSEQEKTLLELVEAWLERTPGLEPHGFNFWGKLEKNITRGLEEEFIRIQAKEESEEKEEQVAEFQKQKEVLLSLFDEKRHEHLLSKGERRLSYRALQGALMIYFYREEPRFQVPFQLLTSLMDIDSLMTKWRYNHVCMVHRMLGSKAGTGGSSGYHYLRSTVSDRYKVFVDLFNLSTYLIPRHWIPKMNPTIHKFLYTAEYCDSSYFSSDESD
Summary of the method: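 Kynurenine output, as percent of untreated control after background subtraction, read at 490 nm with p-dimethylbenzaldehyde following TCA quench and 15 min heating at 50 °C. Reaction: rhTDO with compound, 10 min preincubation then 120 min at 37 °C, started by 20 mM tryptophan stock, in phosphate/ascorbate/methylene blue/catalase.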

IDO in A431 cells = target: T1, IDO in A431 cells (Homo sapiens, UniProt P14902); experiment: IDO cell-based assay, kynurenine production in IFN-γ stimulated A431 cells; settings: A-431, 24 h; final concentration of the compound 10 μM; rate relative to culture without compound
T1 construct: endogenous in cells; host or cells: A431 cells, IFN-γ stimulated
T1 sequence (P14902 whole entry): as the sequence (P14902 whole entry) above
Summary of the method: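 Kynurenine output was read by absorbance at 460 nm after p-dimethylbenzaldehyde/trichloroacetic acid reagent, background-corrected, and given as % of untreated wells. Before the read, cells in 178 μM L-tryptophan medium had 1 h compound preincubation, then 24 h IFN-γ stimulation (added as 100 ng/mL dilution).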

TDO in A172 cells = target: T2, TDO in A172 cells (Homo sapiens, UniProt P48775); experiment: TDO cell-based assay, kynurenine production in A172 cells; settings: A 172; final concentration of the compound 10 μM; rate relative to culture without compound
T2 construct: endogenous in cells; host or cells: A172 cells
T2 sequence (P48775 whole entry): as the sequence (P48775 whole entry) above
Summary of the method: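 A172 cells were preincubated with compound for 1 h, then given L-tryptophan (final 524 μM) for 24 h at 37 °C. Kynurenine was read at 460 nm after p-dimethylbenzaldehyde/TCA reagent, background-subtracted, and expressed as % of no-compound production.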

## COc1ccc(CCN2CN=C(SCc3ccc(Br)cc3CSC3=NCN(CCc4ccc(OC)cc4)CN3)NC2)cc1 [Compound 148, 6,6′-(((4-Bromo-1,2-phenylene)bis(methylene))bis(sulfanediyl))bis(3-(4-methoxyphenethyl)-1,2,3,4-tetrahydro-1,3,5-triazine)]
[1]
  remaining activity at 10 µM: 13%
[2]
  remaining activity at 10 µM: 8%
IDO in A431 cells
  remaining activity at 10 µM: 7%
TDO in A172 cells
  remaining activity at 10 µM: 18%

## FC(F)(F)c1cccc(CCN2CN=C(SCc3ccc(Br)cc3CSC3=NCN(CCc4cccc(C(F)(F)F)c4)CN3)NC2)c1 [Compound 149, 6,6′-(((4-Bromo-1,2-phenylene)bis(methylene))bis(sulfanediyl))bis(3-(3-(trifluoromethyl)phenethyl)-1,2,3,4-tetrahydro-1,3,5-triazine)]
[1]
  remaining activity at 10 µM: 8%
[2]
  remaining activity at 10 µM: 11%
IDO in A431 cells
  remaining activity at 10 µM: 7%
TDO in A172 cells
  remaining activity at 10 µM: 17%

## Fc1ccc(CSC2=NCN(CCc3cccc(C(F)(F)F)c3)CN2)c(CSC2=NCN(CCc3cccc(C(F)(F)F)c3)CN2)c1 [Compound 150, 6,6′-(((4-Fluoro-1,2-phenylene)bis(methylene))bis(sulfanediyl))bis(3-(3-(trifluoromethyl)phenethyl)-1,2,3,4-tetrahydro-1,3,5-triazine)]
[1]
  remaining activity at 10 µM: 23%
[2]
  remaining activity at 10 µM: 11%
IDO in A431 cells
  remaining activity at 10 µM: 15%
TDO in A172 cells
  remaining activity at 10 µM: 13%

## N=C(N)SCc1sc2ccccc2c1CSC(=N)N [Compound 151, Benzo[b]thiophene-2,3-diylbis(methylene) dicarbamimidothioate dihydrobromide]
[1]
  remaining activity at 10 µM: 13%
[2]
  remaining activity at 10 µM: 11%
IDO in A431 cells
  remaining activity at 10 µM: 33%
TDO in A172 cells
  remaining activity at 10 µM: 76%

## FC(F)(F)c1cccc(CCN2CN=C(SCc3cc(Cl)c(Cl)cc3CSC3=NCN(CCc4cccc(C(F)(F)F)c4)CN3)NC2)c1 [Compound 152, 6,6′-(((4,5-Dichloro-1,2-phenylene)bis(methylene))bis(sulfanediyl))bis(3-(3-(trifluoromethyl)phenethyl)-1,2,3,4-tetrahydro-1,3,5-triazine)]
[1]
  remaining activity at 10 µM: 7%
[2]
  remaining activity at 10 µM: 7%
IDO in A431 cells
  remaining activity at 10 µM: 9%
TDO in A172 cells
  remaining activity at 10 µM: 6%

## COc1cccc(CCN2CN=C(SCc3cc(Cl)c(Cl)cc3CSC3=NCN(CCc4cccc(OC)c4)CN3)NC2)c1 [Compound 153, 6,6′-(((4,5-Dichloro-1,2-phenylene)bis(methylene))bis(sulfanediyl))bis(3-(3-methoxyphenethyl)-1,2,3,4-tetrahydro-1,3,5-triazine)]
[1]
  remaining activity at 10 µM: 8%
[2]
  remaining activity at 10 µM: 6%
IDO in A431 cells
  remaining activity at 10 µM: 12%
TDO in A172 cells
  remaining activity at 10 µM: 9%
